Tests used:
Format in all cases: biochemical
UCH-L3 = target: T1, UCH-L3 (Homo sapiens, UniProt P15374); test: UCH-L3 activity assay (Ub-AMC substrate); conditions: Ub-AMC 300 nM, UCH-L3 13 pM
T1 sequence (P15374 1-230): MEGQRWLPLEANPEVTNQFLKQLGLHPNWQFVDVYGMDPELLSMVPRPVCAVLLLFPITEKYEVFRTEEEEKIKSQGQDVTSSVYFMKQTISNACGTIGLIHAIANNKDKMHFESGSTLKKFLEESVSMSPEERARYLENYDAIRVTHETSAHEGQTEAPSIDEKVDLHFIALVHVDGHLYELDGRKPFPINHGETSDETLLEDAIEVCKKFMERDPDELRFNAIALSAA
Description: UCH-L3 was diluted in USP buffer (50 mM Tris HCl; 0.5 mM EDTA; 5 mM DTT; 0.01% Triton X-100; Bovine Serum Albumin 0.05 mg·ml^−1 pH7.6). Compounds stocks (100 mM) were stored at −20° C. in DMSO. Compounds were tested at different concentrations: from 200 μM to 91 nM.
(§1) Reactions were performed as duplicates in Black 384 well plates (small volume microplates; Greiner; 10 μl final reaction volume). The substrate concentration for UCH-L3 was 300 nM Ub-AMC (Boston Biochem). The concentration of the enzyme (UCH-L3) in specificity assays was 13 pM. The concentrations were determined in order to perform specificity assays under initial velocities at fixed substrate concentration. Compounds were pre-incubated with enzymes for 30 minutes at 25° C. Reactions were initiated by addition of substrate to the plates containing the enzymes (+/− compounds) diluted in assay buffer. Reactions were incubated for 60 minutes at 37° C. Reactions were stopped by adding acetic acid (100 mM final). Readings were performed on a Pherastar Fluorescent Reader (BMG). λ Emission 380 nm; λ Excitation=460 nm. Data (mean values +/− standard deviation) were analyzed as % of control (no compound) and plotted as percentage versus the Log of the compound concentration using GraphPad (Prism). Data were fitted to a sigmoidal model (variable slope).

UCH-L1 = target: T2, UCH-L1 (Homo sapiens, UniProt P09936); test: UCH-L1 activity assay (Ub-AMC substrate); conditions: Ub-AMC 300 nM, UCH-L1 2.5 nM
T2 sequence (P09936 1-223): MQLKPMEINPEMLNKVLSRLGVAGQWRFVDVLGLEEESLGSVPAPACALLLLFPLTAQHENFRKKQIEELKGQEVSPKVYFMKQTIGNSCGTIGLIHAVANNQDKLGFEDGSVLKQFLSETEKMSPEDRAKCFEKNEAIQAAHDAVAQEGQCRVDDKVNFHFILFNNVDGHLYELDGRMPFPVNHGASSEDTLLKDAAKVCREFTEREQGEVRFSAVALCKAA
Description: UCH-L1 was diluted in USP buffer (50 mM Tris HCl; 0.5 mM EDTA; 5 mM DTT; 0.01% Triton X-100; Bovine Serum Albumin 0.05 mg·ml^−1 pH7.6). Compounds stocks (100 mM) were stored at −20° C. in DMSO. Compounds were tested at different concentrations: from 200 μM to 91 nM.
as §1, with “UCH-L1” for “UCH-L3”, “(UCH-L1)” for “(UCH-L3)”, “2.5 nM.” for “13 pM.”

Caspase 3 = target: T3, Caspase 3 (Homo sapiens, UniProt P42574); test: Caspase 3 activity assay (Ac-DEVD-AMC substrate); conditions: Ac-DEVD-AMC 250 nM, Caspase 3 1.6 nM
T3 sequence (P42574 29-175 limits assumed): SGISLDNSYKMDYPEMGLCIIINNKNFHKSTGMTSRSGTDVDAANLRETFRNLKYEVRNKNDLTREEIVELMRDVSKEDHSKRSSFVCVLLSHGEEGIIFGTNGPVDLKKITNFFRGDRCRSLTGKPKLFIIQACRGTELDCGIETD
T3 sequence (P42574 176-277 limits assumed): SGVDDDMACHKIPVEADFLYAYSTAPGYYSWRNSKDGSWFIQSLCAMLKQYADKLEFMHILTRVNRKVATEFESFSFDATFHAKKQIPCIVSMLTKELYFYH
Description: Caspase 3 was diluted in Caspase 3 buffer (100 mM Hepes pH 7.5; 10% sucrose; 0.1% CHAPS). Compounds stocks (100 mM) were stored at −20° C. in DMSO. Compounds were tested at different concentrations: from 200 μM to 91 nM.
as §1, with “caspase 3 specificity assay” for “UCH-L3”, “250” for “300”, “(Ac-DEVD-AMC; Promega).” for “Ub-AMC (Boston Biochem).”, “(Caspase 3)” for “(UCH-L3)”, “1.6 nM.” for “13 pM.”, “values+/−” for “values +/−”

Measured: IC50

CN1CCCC1CCNC(=O)c1ccc2c(Cl)c3c(nc2c1)CCCC3 (stereo not drawn) [Example 17, 9-chloro-N-(2-(1-methylpyrrolidin-2-yl)ethyl)-5,6,7,8-tetrahydroacridino-3-carboxamide]
> 200 µM: all assays above

O=C(NCc1cccc(CN2CCCC2)c1)c1ccc2c(Cl)c3c(nc2c1)CCCC3 [Example 18, 9-chloro-N-(3-(pyrrolidin-1-ylmethyl)benzyl)-5,6,7,8-tetrahydroacridine-3-carboxamide]
> 200 µM: all assays above

O=C(Nc1cccc(CN2CCCC2)c1)c1ccc2c(Cl)c3c(nc2c1)CCCC3 [Example 19, 9-chloro-N-(3-(pyrrolidin-1-ylmethyl)phenyl)-5.6,7,8-tetrahydroacridine-3-carboxamide]
> 200 µM: all assays above

CC1CCCCN1CCCNC(=O)c1ccc2c(Cl)c3c(nc2c1)CCCC3 (stereo not drawn) [Example 20, 9-chloro-N-(3-(2-methylpiperidin-1-yl)propyl)-516,7,8-tetrahydroacridine-3-carboxamide]
> 200 µM: all assays above

O=C(NCc1ccc(CN2CCCC2)cc1)c1ccc2c(Cl)c3c(nc2c1)CCCC3 [Example 21, 9-chloro-N-(4-(pyrrolidin-1-ylmethyl)benzyl)-5,6,7,8-tetrahydroacridine-3-carboxamide]
> 200 µM: all assays above

COc1ccc(CN2CCC(CNC(=O)c3ccc4c(Cl)c5c(nc4c3)CCCC5)CC2)cc1 [Example 22, 9-chloro-N-((1-(4-methoxybenzyl)piperidin-4-yl)methyl)-5,6,7,8-tetrahydroacridine-3-carboxamide]
> 200 µM: all assays above

CN(C)c1ccc(CN2CCC(CNC(=O)c3ccc4c(Cl)c5c(nc4c3)CCCC5)CC2)cc1 [Example 23]
> 200 µM: all assays above

O=C(NCC1CCNCC1)c1ccc2c(Cl)c3c(nc2c1)CCCC3 [Example 24, 9-chloro-N-((piperidin-4-yl)methyl)-5,6,7,8-tetrahydroacridine-3-carboxamide]
> 200 µM: all assays above

O=C(NCC(CN1CCCC1)C(O)c1ccccc1)c1ccc2c(Cl)c3c(nc2c1)CCCC3 (stereo not drawn) [Example 25, 9-chloro-N-(3-hydroxy-3-phenyl-2-pyrrolidin-1-ylmethylpropyl)-5,6,7,8-tetrahydroacridine-3-carboxamide]
> 200 µM: all assays above
